The values below are quoted from earlier work in patent US20030069213A1, “ORAL PREPARATION” (priority 1997, published 2003).

≈ marks a conversion by molar mass, not a printed value. Counter-ions that a name gives are not always drawn. Like-named read-outs stand apart in the source and are kept apart here.

The conditions of data set [1]: dissolved in water.
Assay in data set [2]: not given
The source holds these as a separate data set.

`NC[C@H]1CC[C@H](C(=O)O)CC1` [tranexamic acid]: the “pKa (amino group)” value is 10.65 and the “pKa (carboxyl group)” value is 4.33.
With `Clc1ccccc1CN1CCc2sccc2C1` [ticlopidine hydrochloride], the pKa is recorded as 6.93.
For the molecule `OC[C@@H](O)[C@H](O)[C@@H](O)CO` [xylitol], the heat of dissolution in data set [1] was -35 cal/g; in data set [1] (listed as Xylitol) it was “Xylitol (−35) cal/g”.
With `OC[C@@H](O)[C@@H](O)[C@H](O)[C@@H](O)CO` [sorbitol], the heat of dissolution in data set [1] was -24.1 cal/g; in data set [1] (listed as D-Sorbitol), “(−24.1) cal/g”.
Regarding `OC[C@@H](O)[C@@H](O)CO` [erythritol], the heat of dissolution in data set [1] was -42.9 cal/g.
As to `OC[C@@H](O)[C@@H](O)[C@H](O)[C@H](O)CO` [mannitol], the figures for the heat of dissolution in data set [1] and in data set [1] (listed as D-Mannitol) were -28.9 cal/g and “(−28.9) cal/g”, respectively.
Take `CN/C(=N/CCSCc1nc[nH]c1C)NC#N` [cimetidine]: the pKa is recorded as 7.1. The solubility in water in data set [2] (pH 6.5, 25° C.) was 30 mg/mL (≈ 119 mM). Besides, the solubility in water in data set [2] (pH 8.3, 25° C.) is 5.3 mg/mL (≈ 21 mM).
As to `OC[C@H]1O[C@@](CO)(O[C@H]2O[C@H](CO)[C@@H](O)[C@H](O)[C@H]2O)[C@@H](O)[C@@H]1O` [sucrose], the heat of dissolution was -4.5 cal/g in data set [1] and “Sucrose (−4.5) cal/g” in data set [1] (listed as Sucrose).
Regarding `NC[C@H]1CC[C@H](C(=O)Oc2ccc(CCC(=O)O)cc2)CC1` [cetraxate hydrochloride], the “pKa (amino group)” value is listed as 10.5 and the “pKa (carboxyl group)” value was 4.5. Also, the solubility in water in data set [2] (pH 2.8, 22° C.) was 27 mg/mL. Also, the solubility in water in data set [2] (pH 5.9, 22° C.) is 0.4 mg/mL.
`OC[C@@H](O)[C@@H](O[C@H]1O[C@H](CO)[C@@H](O)[C@H](O)[C@H]1O)[C@H](O)[C@@H](O)CO` [maltitol]: the heat of dissolution was -5.5 cal/g in data set [1] and “Maltitol (−5.5) cal/g” in data set [1] (listed as Maltitol).
